Measured values as given in patent US8815946B2, “Inhibition of proliferation and fibrotic response of activated corneal stromal cells” (University of Pittsburgh—of the Commonwealth System of …, priority 2008, dated 2014).

Columns and labels:
[1] = test system: extracellular matrix genes; assay: Microarray analysis (Affymetrix U133 Plus 2.0) of corneal stromal cells; assay type: cell-based, human
Method: Total RNA was processed and analyzed using the appropriate Affymetrix products (Affymetrix Inc., Santa Clara, Calif.). Eukaryote Poly A RNA internal standards (GeneChip® Poly-A RNA Control Kit from Affymetrix Inc.) were added to the samples, and the mRNA component of the total RNA was reverse-transcribed in the presence of a T7-(dT)24 primer (GeneChip® One-Cycle cDNA Synthesis Kit from Affymetrix Inc.). The resulting cDNA was extracted (GeneChip® Sample Cleanup Module from Affymetrix Inc.) and transcribed in vitro in the presence of biotin-labeled ribonucleotides (Labeling Kit from Affymetrix Inc.). The biotinylated RNA was extracted and fragmented (GeneChip® Sample Cleanup Module from Affymetrix Inc.: 20 μg material fragmented for 35 minutes at 94° C.). Each sample was hybridized overnight to a U133 PLUS™ 2.0 GeneChip (GeneChip® Human Genome U133 Plus 2.0 Array from Affymetrix Inc.). The chips were then washed, developed and scanned in Agilent CHIPSCANNER™ (Affymetrix Inc., Santa Clara, Calif.). Raw data was processed and analyzed using Affymetrix GENECHIP™ Operating System (GCOS) v 1.0.
The U133 PLUS™ 2.0 GeneChips contain 54,675 panels, each targeting a specific transcript sequence. Approximately 20,600 gene products identified by Entrez Gene numbers are redundantly targeted by 46,000 panels: the remaining panels target products which are less well characterized. Affymetrix GCOS™1.0 software was used to assess the presence or absence of the target sequence of each panel. Expression levels were normalized so that the mean for each sample was equal to the global mean for all samples. Panels, which were absent for every sample in either experiment, were omitted from further consideration. This left 23284 panels encoding 12258 unique, characterized (Entrez Gene) genes.
In earlier work, the changes in the gene expression upon activation of keratocyte to myofibroblast phenotype induced by TGF-β1 was studied. In the present analysis, as a cross check the present, consistent TGFβ-evoked (>2-fold) increases were checked with the previous data. Transition from keratocytes to fibroblasts increased 520 panels, and decreased 700 panels. The 599 unique, characterized genes so altered were compared with a previously acquired database of 873 genes known to be altered by phenotypic transition either from keratocyte to fibroblast or from fibroblast to myofibroblast. The number of genes concordant between these sets was 170, 4.9-fold greater than random chance (p=1.65×10^−130, chi-squared test). Extracellular matrix components: 244 panels (143 unique genes) with the Gene Ontology Cellular Component code 5578 (extracellular matrix) were selected. Of these, 28 were TGFβ-1 modulated in the present experiment and 49 were Consistent 5-fold increases in myofibroblasts.
In Table 1 are ECM genes altered by phenotype change, which are also affected by ethyl pyruvate. Genes in bold were altered during phenotype shifts only in previous experiments, genes in italics were altered by phenotype shift only in the present experiment, and genes in normal font were altered by phenotype shifts in both present and prior experiments.

CD-45+ leukocytes = assay: Mouse corneal wound model, FACS with pan-leukocyte marker CD-45+; assay type: in vivo, Mus musculus strain C57
From the text: A mouse model of corneal wound healing and inflammation induced by lipopolysacharide (LPS) was used to test the effect of EP. Khatari et al., Invest. Opthalmol. Vis. Sci. (2002) 43:2278-2284. Briefly, mice (Mus musculus strain C57, age approx. 2 months) were obtained from Charles River Laboratories in accordance with institutional protocols and divided into the following treatment groups (with 3 samples in each group):
Prior to wounding, all mice were anesthetized with an intraperitoneal injection of 50 mg/kg ketamine with 5 mg/kg xylazine. Topical anesthesia was further achieved with an additional 1 drop of 0.5% proparacaine per eye. Once the animal was sufficiently anesthetized, a corneal wound was constructed in each eye using a sterile 26-gauge needle that penetrated the epithelium and the superficial layers of the stroma. This linear scratch extended from the medial to lateral canthus (FIG. 12). 10 μg of the bacterial super-antigen LPS (Pseudomonas aeruginosa lipopolysaccharide, Sigma) was applied to the wound using a 10 μl pipette and allowed to penetrate the cornea for 5 minutes. Addition of bacterial endotoxin ensured a robust inflammatory response.
The wound was then washed with phosphate buffered saline (PBS/non-pyrogenic dH2O). […] The delivery and concentration of EP was determined according to Devamanoharan et al. (1999); 200(1-2):103-09. […]

[2] = test system: human corneal stromal cells; assay: Toxicity to cultured human corneal stromal cells; assay type: cell-based; settings: possibly due to low pH of the culture medium
Method: Higher than 20 mM concentrations were toxic to the cells, possibly due to the low pH of the culture medium resulting from high EP concentrations.

[3] = three consistent (2-fold) changes of four potential
[4] = two consistent (2-fold) changes of four potential

With CCOC(=O)C(C)=O [ethyl pyruvate] the “latent transforming growth factor beta binding protein 1 expression change” value ([1]; four consistent (2-fold) changes of four potential) was “(−4.1)”, the “consistent increase of RGC32, HMOX1, GDF15 and TRIB3 expression” value ([1]; myofibroblasts, only four characterized genes) was 5 fold and the “Tissue factor pathway inhibitor 2 expression change” value [1, 3] was “(−4.8)”. For the same compound, the “collagen, type III, alpha 1 expression change” value [1, 3] was “alpha 1 (−4.9)”, the “collagen, type X, alpha1 expression change” value [1, 3] was “alpha1 (−8.1)” and the “laminin, beta 1 expression change” value [1, 3] was “(−3.8)”. For the same compound, the “matrix metallopeptidase 10 (stromelysin 2) expression change” value [1, 3] was “(stromelysin 2) (3.8)”, the “periostin, osteoblast specific factor expression change” value [1, 3] was “specific factor (−9.7)” and the “secreted phosphoprotein 1 (osteopontin) expression change” value [1, 3] was “(osteopontin) (2.7)”. For the same compound, the “Collagen, type VIII, alpha 1 expression change” value [1, 4] was “alpha 1 (−4.0)”, the “EGF-containing fibulin-like extracellular matrix protein1 expression change” value [1, 4] was “(−2.6)” and the “SPARC-like 1 expression change” value [1, 4] was “SPARC-like 1 (−3.3)”. For the same compound, the “chondroitin sulfate proteoglycan 2 (versican) expression change” value [1, 4] was “(versican) (−5.9)”, the “collagen triple helix repeat containing 1 expression change” value [1, 4] was “containing 1 (−4.3)” and the “collagen, type I, alpha 2 expression change” value [1, 4] was “alpha 2 (−2.7)”. The “collagen, type V, alpha 1 expression change” value [1, 4] was “alpha 1 (−6.2)”, the “collagen, type VIII, alpha 2 expression change” value [1, 4] was “alpha 2 (−3.8)” and the “collagen, type XII, alpha1 expression change” value [1, 4] was “alpha1 (−2.8)”. The “fibronectin 1 expression change” value [1, 4] was “fibronectin 1 (−2.3)”, the “heparan sulfate proteoglycan 2 (perlecan) expression change” value [1, 4] was “(perlecan) (−3.0)” and the “laminin, alpha 4 expression change” value [1, 4] was “(−2.4)”. The “lysyl oxidase expression change” value [1, 4] was “lysyl oxidase (−4.0)”, the “matrix metallopeptidase 1 (interstitial collagenase) expression change” value [1, 4] was “collagenase) (5.9)” and the “secreted protein, acidic, cysteine-rich (osteonectin) expression change” value [1, 4] was “(osteonectin) (−8.4)”. For the same compound, the “tenascin C (hexabrachion) expression change” value [1, 4] was “(hexabrachion) (−7.4)”, the “collagen, type I, alpha 1 expression change” value ([1]; two consistent (2-fold) ethyl pyruvate changes of four potential (2 phenotypes, 2 experiments)) was “alpha 1 (−2.9)” and the “inflammatory cells (CD-45+) by FACS” value (CD-45+ leukocytes; day 1 post-wounding) was 28.50±12.02. The “inflammatory cells (CD-45+) by FACS” value (CD-45+ leukocytes; day 2 post-wounding) was 163.00±57.42 and the “concentrations toxic to the cells” value [2] was “Higher than 20 mM”.
